According to US9809623B2, “α4β7 peptide monomer and dimer antagonists” (Protagonist Therapeutics, Inc., priority 2014, dated 2017):
Numbered stars: 1 amine (or outer) side, 2 acyl side, 3 side chain; on linkers, the order of the positions; unused ones are H or OH. Bridge positions count the residues as written; N and C are the ends. Square brackets hold non-standard residues; d marks the D form. Peptide text beside a SMILES is read from it. I, II: the chains in the order shown. Phe(3,4-Cl2) = N[C@@H](Cc1ccc(Cl)c(Cl)c1)C(=O)O; Phe(2,4-Cl2) = N[C@@H](Cc1ccc(Cl)cc1Cl)C(=O)O; 1Nal = N[C@@H](Cc1cccc2ccccc12)C(=O)O; 2Nal = N[C@@H](Cc1ccc2ccccc2c1)C(=O)O; d1Nal = N[C@H](Cc1cccc2ccccc12)C(=O)O; d2Nal = N[C@H](Cc1ccc2ccccc2c1)C(=O)O; Diglycolyl = O=C(COCC(=O)[*:2])[*:1]; NMeR = CN[C@@H](CCCNC(=N)N)C(=O)O; hPhe = N[C@@H](CCc1ccccc1)C(=O)O; Tic = O=C(O)[C@@H]1Cc2ccccc2CN1; NMeK = CN[C@@H](CCCCN)C(=O)O; Pen = CC(C)(S)[C@H](N)C(=O)O; dNMeK = CN[C@H](CCCCN)C(=O)O

Tests used:
rh integrin α4β7 = target: T1, rh integrin α4β7 (Homo sapiens, UniProt P13612+P26010); experiment: α4β7-MAdCAM Competition ELISA; format: binding; conditions: Table 3-B, Potency (α4β7); range classes; read-out: α4β7 ELISA IC50
T1 construct: purchased R&D Systems 5397-A30
T1 sequence (P13612 34-977 limits assumed): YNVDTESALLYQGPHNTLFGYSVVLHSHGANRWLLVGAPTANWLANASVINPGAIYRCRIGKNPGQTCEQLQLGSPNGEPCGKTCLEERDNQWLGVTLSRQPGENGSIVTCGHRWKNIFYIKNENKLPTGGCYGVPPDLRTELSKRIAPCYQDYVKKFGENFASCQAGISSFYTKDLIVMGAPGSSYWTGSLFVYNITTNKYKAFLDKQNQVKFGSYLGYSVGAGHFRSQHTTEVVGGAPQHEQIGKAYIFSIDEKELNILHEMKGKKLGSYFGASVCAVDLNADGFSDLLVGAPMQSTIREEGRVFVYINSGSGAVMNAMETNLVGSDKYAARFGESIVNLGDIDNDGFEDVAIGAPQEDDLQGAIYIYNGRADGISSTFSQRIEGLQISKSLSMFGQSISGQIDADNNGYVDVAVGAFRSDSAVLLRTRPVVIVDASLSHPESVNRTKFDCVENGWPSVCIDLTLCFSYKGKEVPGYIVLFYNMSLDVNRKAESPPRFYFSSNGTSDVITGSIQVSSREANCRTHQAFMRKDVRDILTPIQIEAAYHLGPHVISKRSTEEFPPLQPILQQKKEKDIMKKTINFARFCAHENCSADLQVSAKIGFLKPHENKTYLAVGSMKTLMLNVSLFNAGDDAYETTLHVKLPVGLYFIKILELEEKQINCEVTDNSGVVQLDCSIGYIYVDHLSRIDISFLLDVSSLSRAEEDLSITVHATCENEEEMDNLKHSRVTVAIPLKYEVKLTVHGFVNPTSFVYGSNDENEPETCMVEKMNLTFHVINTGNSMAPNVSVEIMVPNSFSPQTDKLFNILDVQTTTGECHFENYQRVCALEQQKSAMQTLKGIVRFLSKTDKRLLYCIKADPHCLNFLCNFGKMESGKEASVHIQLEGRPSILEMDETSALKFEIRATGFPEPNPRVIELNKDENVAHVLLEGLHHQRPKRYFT
T1 sequence (P26010 20-723 limits assumed): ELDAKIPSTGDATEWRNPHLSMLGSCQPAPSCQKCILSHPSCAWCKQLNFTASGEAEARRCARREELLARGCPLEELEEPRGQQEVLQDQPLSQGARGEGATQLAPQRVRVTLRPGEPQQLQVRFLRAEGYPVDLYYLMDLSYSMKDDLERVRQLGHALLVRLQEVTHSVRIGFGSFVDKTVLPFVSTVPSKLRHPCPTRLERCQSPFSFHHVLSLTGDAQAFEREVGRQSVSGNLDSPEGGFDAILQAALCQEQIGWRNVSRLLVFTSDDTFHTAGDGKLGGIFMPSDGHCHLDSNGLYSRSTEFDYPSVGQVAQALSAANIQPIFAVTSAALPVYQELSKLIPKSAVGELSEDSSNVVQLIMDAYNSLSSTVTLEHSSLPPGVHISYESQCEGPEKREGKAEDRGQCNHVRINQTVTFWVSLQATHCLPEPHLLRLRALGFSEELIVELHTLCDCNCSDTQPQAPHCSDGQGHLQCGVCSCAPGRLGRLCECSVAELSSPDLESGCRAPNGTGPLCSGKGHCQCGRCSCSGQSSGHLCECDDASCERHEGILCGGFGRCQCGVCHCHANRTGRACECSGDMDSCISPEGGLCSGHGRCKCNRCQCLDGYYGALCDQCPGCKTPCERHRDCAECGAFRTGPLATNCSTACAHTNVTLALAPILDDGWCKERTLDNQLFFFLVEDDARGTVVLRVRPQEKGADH
Procedure: A nickel coated plate (Pierce #15442) was coated with rh integrin α4β7 (R&D Systems #5397-A30) at 800 ng/well and incubated at room temperature with shaking for 1 hr. The solution was then removed by shaking and blocked with assay buffer (50 mM Tris-HCl pH7.6, 150 mM NaCl, 1 mM MnCl2 or MgCl2, 0.05% Tween-20 and 0.5% BSA) at 250 ul/well. The plate was then incubated at room temperature for 1 hr. Each well was washed 3 times with wash buffer (50 mM Tris-HCl pH7.6, 100 mM NaCl, 1 mM MnCl2 or MgCl2, 0.05% Tween-20). To each well was added 25 ul of a serial dilution (3-fold dilutions in assay buffer) of peptide starting at 20 μM. 25 ul of recombinant human MAdCAM-1 (R&D Systems #6056-MC) was then added to each well at a fixed concentration 20 nM. The final starting peptide concentration was 10 μM, and the final MAdCAM-1 concentration was 10 nM. The plates were then incubated at room temperature for 1 hr to reach binding equilibrium. The wells were then washed three times with wash buffer. 50 ul of mouse anti-human IgG1-HRP (Invitrogen # A10648) diluted in 1:2000 in assay buffer was then added to each well. The wells were incubated at room temperature for 45 min with shaking. The wells were then washed 3 times with wash buffer. 100 ul of 3,3′,5,5′-Tetramethylbenzidine (TMB) were then added to each well and closely observe during development time. The reaction was stopped with 2N H2SO4 and absorbance was read at 450 nm.
TMB is a chromogenic substrate suitable for use in ELISA procedures, which utilize horseradish peroxidase conjugates. This substrate produces a soluble end product that is blue in color and can be read spectrophotometrically at 370 or 655 nm. The reaction maybe stopped with 2 M H2S04, resulting in a yellow solution that is read at 450 nm. Each tablet contains 1 mg of TMB substrate. To prepare TMB Substrate Solution, dissolve one 3,3′,5,5′-tetramethylbenzidine tablet in 1 ml of DMSO and add to 9 ml of 0.05 M Phosphate-Citrate Buffer, pH 5.0. Add 2 μl of fresh 30% hydrogen peroxide (Product No. H 1009) per 10 ml of substrate buffer solution, immediately prior to use.

α4β7 = α4β7 (Homo sapiens, UniProt P13612+P26010); experiment: α4β7-MAdCAM Cell Adhesion Assay (RPMI 8866 human cells); format: cell-based; set-up: host or cells: RPMI 8866 human B lymphoblastoid cells; conditions: Table 3-B, Potency (α4β7); range classes; read-out: α4β7 cell (Hu) IC50
Sequence of α4β7 (P13612 34-1032): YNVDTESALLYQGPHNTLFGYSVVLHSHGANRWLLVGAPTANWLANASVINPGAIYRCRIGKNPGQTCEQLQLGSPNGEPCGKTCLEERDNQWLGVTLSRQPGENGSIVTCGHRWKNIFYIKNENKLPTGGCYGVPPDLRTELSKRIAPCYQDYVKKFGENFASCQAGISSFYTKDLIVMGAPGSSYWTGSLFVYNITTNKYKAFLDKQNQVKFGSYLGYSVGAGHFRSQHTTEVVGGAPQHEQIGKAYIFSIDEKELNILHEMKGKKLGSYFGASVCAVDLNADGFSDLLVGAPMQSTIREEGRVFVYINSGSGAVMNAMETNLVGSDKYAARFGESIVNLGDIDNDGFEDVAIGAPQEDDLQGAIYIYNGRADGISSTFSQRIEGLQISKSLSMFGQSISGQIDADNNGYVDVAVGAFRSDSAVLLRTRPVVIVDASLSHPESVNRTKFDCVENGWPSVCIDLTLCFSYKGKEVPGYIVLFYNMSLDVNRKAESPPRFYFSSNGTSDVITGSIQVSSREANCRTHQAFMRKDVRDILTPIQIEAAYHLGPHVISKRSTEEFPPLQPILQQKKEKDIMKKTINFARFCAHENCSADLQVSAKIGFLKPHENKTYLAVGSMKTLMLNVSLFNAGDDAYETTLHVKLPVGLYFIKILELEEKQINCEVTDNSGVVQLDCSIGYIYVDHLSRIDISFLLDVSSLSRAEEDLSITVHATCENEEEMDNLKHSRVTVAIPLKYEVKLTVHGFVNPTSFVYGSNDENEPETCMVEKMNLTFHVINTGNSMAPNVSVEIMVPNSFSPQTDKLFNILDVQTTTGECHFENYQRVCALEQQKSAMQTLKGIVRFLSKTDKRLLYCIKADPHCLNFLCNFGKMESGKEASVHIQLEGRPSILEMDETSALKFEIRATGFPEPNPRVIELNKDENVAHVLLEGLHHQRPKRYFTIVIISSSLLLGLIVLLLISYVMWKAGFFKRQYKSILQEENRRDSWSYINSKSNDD
Sequence of α4β7 (P26010 20-798): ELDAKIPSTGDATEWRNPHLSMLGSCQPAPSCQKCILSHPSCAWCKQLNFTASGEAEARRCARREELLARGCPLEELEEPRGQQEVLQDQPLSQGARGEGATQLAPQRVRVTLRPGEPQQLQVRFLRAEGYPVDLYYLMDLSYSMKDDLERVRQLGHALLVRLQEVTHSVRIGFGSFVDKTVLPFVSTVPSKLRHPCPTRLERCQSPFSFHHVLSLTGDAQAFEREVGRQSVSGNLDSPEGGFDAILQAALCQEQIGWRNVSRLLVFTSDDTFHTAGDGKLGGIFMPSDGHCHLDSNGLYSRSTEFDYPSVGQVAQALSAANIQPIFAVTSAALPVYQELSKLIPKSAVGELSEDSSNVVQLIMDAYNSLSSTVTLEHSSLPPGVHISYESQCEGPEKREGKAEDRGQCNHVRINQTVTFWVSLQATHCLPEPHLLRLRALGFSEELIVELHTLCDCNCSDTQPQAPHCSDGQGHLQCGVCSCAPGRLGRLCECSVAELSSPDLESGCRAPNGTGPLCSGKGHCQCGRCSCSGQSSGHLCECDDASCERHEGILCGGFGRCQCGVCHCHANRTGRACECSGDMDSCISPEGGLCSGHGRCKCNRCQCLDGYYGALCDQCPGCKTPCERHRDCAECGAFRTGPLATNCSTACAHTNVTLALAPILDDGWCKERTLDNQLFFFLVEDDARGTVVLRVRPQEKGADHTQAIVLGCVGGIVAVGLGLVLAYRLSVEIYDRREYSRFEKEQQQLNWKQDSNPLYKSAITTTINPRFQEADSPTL
Procedure, shortened: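 Adhesion read-out: MTT absorbance at 570 nm minus no-cell wells, after three washes. Plates coated with rh MAdCAM-1/Fc received peptide dilutions plus 200,000 RPMI 8866 cells in Mn2+ (1 mM)-supplemented DMEM, 0.1% BSA, HEPES pH 7, incubated 30-45 min, 37 °C.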

SMILES	IC50 (rh integrin α4β7) [nM]	IC50 (α4β7) [nM]
CC(=O)N[C@@H]1C(=O)N(C)[C@@H](CCCNC(=N)N)C(=O)N[C@@H](CO)C(=O)N[C@@H](CC(=O)O)C(=O)N[C@@H]([C@@H](C)O)C(=O)N[C@@H](CC(C)C)C(=O)N[C@H](C(=O)N[C@@H](Cc2ccc(Cl)cc2Cl)C(=O)N[C@@H](CCC(=O)O)C(=O)N[C@H](CCCCN)C(N)=O)C(C)(C)SSC1(C)C [compound 16] (Ac-[Pen][NMeR]SDTL[Pen][Phe(2,4-Cl2)]E[dK]-NH2; disulfide 1-7)	10 to 25	–
CC(=O)N[C@@H]1C(=O)N(C)[C@@H](CCCNC(=N)N)C(=O)N[C@@H](CO)C(=O)N[C@@H](CC(=O)O)C(=O)N[C@@H]([C@@H](C)O)C(=O)N[C@@H](CC(C)C)C(=O)N[C@H](C(=O)N[C@@H](Cc2cccc3ccccc23)C(=O)N[C@H](CCC(=O)O)C(=O)N[C@H](CCCCN)C(N)=O)C(C)(C)SSC1(C)C [compound 8] (Ac-[Pen][NMeR]SDTL[Pen][1Nal][dE][dK]-NH2; disulfide 1-7)	25 to 50	–
CC(=O)N[C@@H]1C(=O)N(C)[C@@H](CCCNC(=N)N)C(=O)N[C@@H](CO)C(=O)N[C@@H](CC(=O)O)C(=O)N[C@@H]([C@@H](C)O)C(=O)N[C@@H](CC(C)C)C(=O)N[C@H](C(=O)N[C@@H](Cc2ccc3ccccc3c2)C(=O)N[C@H](CCCCN)C(N)=O)C(C)(C)SSC1(C)C [compound 88] (Ac-[Pen][NMeR]SDTL[Pen][2Nal][dK]-NH2; disulfide 1-7)	10 to 25	–
CC(=O)N[C@@H]1C(=O)N(C)[C@@H](CCCNC(=N)N)C(=O)N[C@@H](CO)C(=O)N[C@@H](CC(=O)O)C(=O)N[C@@H]([C@@H](C)O)C(=O)N[C@@H](CC(C)C)C(=O)N[C@H](C(=O)N[C@@H](Cc2ccc(Cl)c(Cl)c2)C(=O)N[C@@H](CCC(=O)O)C(=O)N[C@H](CCCCN)C(N)=O)C(C)(C)SSC1(C)C [compound 17] (Ac-[Pen][NMeR]SDTL[Pen][Phe(3,4-Cl2)]E[dK]-NH2; disulfide 1-7)	10 to 25	–
CC(=O)N[C@@H]1C(=O)N(C)[C@@H](CCCNC(=N)N)C(=O)N[C@@H](CO)C(=O)N[C@@H](CC(=O)O)C(=O)N[C@@H]([C@@H](C)O)C(=O)N[C@@H](CC(C)C)C(=O)N[C@H](C(=O)N[C@H](Cc2ccc3ccccc3c2)C(=O)N[C@@H](CCC(=O)O)C(=O)N[C@H](CCCCN)C(N)=O)C(C)(C)SSC1(C)C [compound 11] (Ac-[Pen][NMeR]SDTL[Pen][d2Nal]E[dK]-NH2; disulfide 1-7)	25 to 50	–
CC(=O)N[C@@H]1C(=O)N(C)[C@@H](CCCNC(=N)N)C(=O)N[C@@H](CO)C(=O)N[C@@H](CC(=O)O)C(=O)N[C@@H]([C@@H](C)O)C(=O)N[C@@H](CC(C)C)C(=O)N[C@H](C(=O)N[C@@H](Cc2ccc3ccccc3c2)C(=O)N[C@H](CCC(=O)O)C(=O)N[C@H](CCCCN)C(N)=O)C(C)(C)SSC1(C)C [compound 9] (Ac-[Pen][NMeR]SDTL[Pen][2Nal][dE][dK]-NH2; disulfide 1-7)	10 to 25	100 to 500
COC(=O)C[C@@H]1NC(=O)[C@H](CO)NC(=O)[C@H](CCCNC(=N)N)N(C)C(=O)[C@@H](NC(C)=O)C(C)(C)SSC(C)(C)[C@@H](C(=O)N[C@@H](Cc2c[nH]c3ccccc23)C(=O)N[C@@H](CCC(=O)O)C(=O)N[C@H](CCCCNC(=O)COCC(=O)NCCCC[C@@H](NC(=O)[C@H](CCC(=O)O)NC(=O)[C@H](Cc2c[nH]c3ccccc23)NC(=O)[C@H]2NC(=O)[C@H](CC(C)C)NC(=O)[C@H]([C@@H](C)O)NC(=O)[C@H](CC(=O)OC)NC(=O)[C@H](CO)NC(=O)[C@H](CCCNC(=N)N)N(C)C(=O)[C@@H](NC(C)=O)C(C)(C)SSC2(C)C)C(N)=O)C(N)=O)NC(=O)[C@H](CC(C)C)NC(=O)[C@H]([C@@H](C)O)NC1=O [compound 73] (I: Ac-[Pen][NMeR]SD(OMe)TL[Pen]WE[dK]-NH2 / II: Ac-[Pen][NMeR]SD(OMe)TL[Pen]WE[dK]-NH2; disulfide I:1-I:7, II:1-II:7; linker I:10-II:10 via Diglycolyl)	< 10	< 10
CC(=O)N[C@@H]1C(=O)N(C)[C@@H](CCCNC(=N)N)C(=O)N[C@@H](CO)C(=O)N[C@@H](CC(=O)O)C(=O)N[C@@H]([C@@H](C)O)C(=O)N[C@@H](CC(C)C)C(=O)N[C@H](C(=O)N[C@@H](CCc2ccccc2)C(=O)N[C@H](CCC(=O)O)C(=O)N[C@H](CCCCN)C(N)=O)C(C)(C)SSC1(C)C [compound 14] (Ac-[Pen][NMeR]SDTL[Pen][hPhe][dE][dK]-NH2; disulfide 1-7)	25 to 50	–
CC(=O)N[C@@H]1C(=O)N(C)[C@@H](CCCNC(=N)N)C(=O)N[C@@H](CO)C(=O)N[C@@H](CC(=O)O)C(=O)N[C@@H]([C@@H](C)O)C(=O)N[C@@H](CC(C)C)C(=O)N[C@H](C(=O)N[C@@H](Cc2ccc3ccccc3c2)C(=O)N[C@@H](CCC(=O)O)C(=O)N(C)[C@@H](CCCCNC(=O)COCC(=O)NCCCC[C@@H](C(N)=O)N(C)C(=O)[C@H](CCC(=O)O)NC(=O)[C@H](Cc2ccc3ccccc3c2)NC(=O)[C@H]2NC(=O)[C@H](CC(C)C)NC(=O)[C@H]([C@@H](C)O)NC(=O)[C@H](CC(=O)O)NC(=O)[C@H](CO)NC(=O)[C@H](CCCNC(=N)N)N(C)C(=O)[C@@H](NC(C)=O)C(C)(C)SSC2(C)C)C(N)=O)C(C)(C)SSC1(C)C [compound 138] (I: Ac-[Pen][NMeR]SDTL[Pen][2Nal]E[NMeK]-NH2 / II: Ac-[Pen][NMeR]SDTL[Pen][2Nal]E[NMeK]-NH2; disulfide I:1-I:7, II:1-II:7; linker I:10-II:10 via Diglycolyl)	10 to 25	10 to 25
CC(=O)N[C@@H]1C(=O)N(C)[C@@H](CCCNC(=N)N)C(=O)N[C@@H](CO)C(=O)N[C@@H](CC(=O)O)C(=O)N[C@@H]([C@@H](C)O)C(=O)N[C@@H](CC(C)C)C(=O)N[C@H](C(=O)N2Cc3ccccc3C[C@H]2C(=O)N[C@H](CCC(=O)O)C(=O)N[C@H](CCCCN)C(N)=O)CSSC1(C)C [compound 89] (Ac-[Pen][NMeR]SDTLC[Tic][dE][dK]-NH2; disulfide 1-7)	25 to 50	–
CC(=O)N[C@@H]1C(=O)N(C)[C@@H](CCCNC(=N)N)C(=O)N[C@@H](CO)C(=O)N[C@@H](CC(=O)O)C(=O)N[C@@H]([C@@H](C)O)C(=O)N[C@@H](CC(C)C)C(=O)N[C@H](C(=O)N[C@@H](Cc2ccc3ccccc3c2)C(=O)N[C@@H](CCC(=O)O)C(=O)N(C)[C@H](CCCCN)C(N)=O)C(C)(C)SSC1(C)C [compound 15] (Ac-[Pen][NMeR]SDTL[Pen][2Nal]E[dNMeK]-NH2; disulfide 1-7)	< 10	–
CC(=O)N[C@@H]1C(=O)N(C)[C@@H](CCCNC(=N)N)C(=O)N[C@@H](CO)C(=O)N[C@@H](CC(=O)O)C(=O)N[C@@H]([C@@H](C)O)C(=O)N[C@@H](CC(C)C)C(=O)N[C@H](C(=O)N[C@@H](Cc2cccc3ccccc23)C(=O)N[C@H](CCC(=O)O)C(=O)N(C)[C@H](CCCCN)C(N)=O)C(C)(C)SSC1(C)C [compound 12] (Ac-[Pen][NMeR]SDTL[Pen][1Nal][dE][dNMeK]-NH2; disulfide 1-7)	25 to 50	–
CC(=O)N[C@@H]1C(=O)N(C)[C@@H](CCCNC(=N)N)C(=O)N[C@@H](CO)C(=O)N[C@@H](CC(=O)O)C(=O)N[C@@H]([C@@H](C)O)C(=O)N[C@@H](CC(C)C)C(=O)N[C@H](C(=O)N[C@H](Cc2cccc3ccccc23)C(=O)N[C@@H](CCC(=O)O)C(=O)N[C@H](CCCCN)C(N)=O)C(C)(C)SSC1(C)C [compound 10] (Ac-[Pen][NMeR]SDTL[Pen][d1Nal]E[dK]-NH2; disulfide 1-7)	10 to 25	–
CC(=O)N[C@@H]1C(=O)N(C)[C@@H](CCCNC(=N)N)C(=O)N[C@@H](CO)C(=O)N[C@@H](CC(=O)O)C(=O)N[C@@H]([C@@H](C)O)C(=O)N[C@@H](CC(C)C)C(=O)N[C@H](C(=O)N[C@@H](CCc2ccccc2)C(=O)N[C@@H](CCC(=O)O)C(=O)N[C@H](CCCCN)C(N)=O)C(C)(C)SSC1(C)C [compound 19] (Ac-[Pen][NMeR]SDTL[Pen][hPhe]E[dK]-NH2; disulfide 1-7)	10 to 25	–
